Test results published in EP0384594A1, “Anti-inflammatory aryl derivatives” (THE WELLCOME FOUNDATION LIMITED, priority 1989, dated 1990).
Where two headings read alike, the source gives them in different places.

Assays:
[1] = test system: Male New Zealand White rabbits; assay: Combination effects with an NSAID: antigen (ovalbumin)-induced arthritis of the knee joint in rabbits; type: in vivo; conditions: for proteoglycan loss from the cartilage, result in words / PROTEOGLYCAN LOSS: 14 days after antigen challenge; for mean leukocyte infiltrate in the synovial fluid, result in words / LEUKOCYTES (CELL NUMBER x 10⁶): 14 days after challenge; for PROTEOGLYCAN LOSS: articular cartilage of arthritic joint versus contralateral joint; for JOINT SWELLING: oral x3/24h: compound A 2mg/kg, indomethacin 1mg/kg; for reduced swelling compared to the vehicle-treated controls: from day 3 onwards, maximum reduction; for Lymphocytes / Total cells: histological evaluation of synovial lining; for LEUKOCYTES (CELL NUMBER x 10⁶): synovial fluid of arthritic joint
Method: Male New Zealand White rabbits (2.5 - 3kg) were immunised with intradermal injections of 4mg of ovalbumin in 1ml of Freund's complete adjuvant. Animals were reimmunised 14 days later in the same way. Five days after the second immunisation, arthritis was induced in the right knee joint by injecting 1ml of a sterile solution of ovalbumin (5mg/ml) into the joint cavity. Joint diameters were measured (on a randomised blind basis) with calipers at frequent intervals after antigen challenge. Animals were killed after 14 days and the joint space was washed with 1ml of saline and the resultant fluid was taken for total and differential leukocyte counts. Sensitised animals were randomly allocated to groups of 5-8. The compound of Synthetic Example 1, (E)-N-{1-Methyl-3-[3-(4-fluorophenoxy)phenyl]prop-2-en-1-yl}-N-hydroxyurea (compound A), was administered in suspension following 18h ball-milling in 0.25% Celacol as vehicle. The non-steroidal anti-inflammatory indomethacin was dissolved in a small volume of 1M Tris buffer pH8 and then made up to volume with 0.25% Celacol. Control animals received 0.25% Celacol. Each animal received an oral dose (approximately 5ml) of vehicle or drug 3 times every 24h. Doses were administered at 8.0am, 4.0pm and 12 midnight for 16-17 days commencing 1h before antigen challenge on day 0. All doses were given orally by stomach tube. The groups were as follows: 1-7: Controls (5ml 0.25% Celacol x3/24h) 8-14: 1mg/kg indomethacin dissolved in 0.25% Celacol x3/24h 15-21: 2mg/kg compound A suspended in 0.25% Celacol x3/24h 22-28: 2mg/kg compound A suspended in 0.25% Celacol plus 1mg/kg indomethacin dissolved in 0.25% Celacol Synovial lining tissue was removed from the joint, fixed, processed, cut and stained for microscopic examination. Histological scores were derived for the total mass of inflamed synovial lining, lymphocyte infiltration and polymorph content. The slides were read on a randomised blind basis. Articular cartilage was dissected from the ends of the femurs and digested with papain prior to measurement of the concentration of sulphated glycosaminoglycans (GAGs). The proteoglycan content was expressed as µg GAG/mg wet weight of cartilage and compared with values obtained with cartilage from the contralateral control joint.

[2] = Anti-oxidant activity: peroxyl radical scavenging, inhibition of peroxidation of linoleic acid
Method: As a measure of anti-oxidant activity, the peroxyl radical scavenging abilities of the compounds of the invention were determined by testing each compound's ability to inhibit the peroxidation of linoleic acid using the method described in Biochem. Pharm. 38, 1465 (1989).

5-lipoxygenase [3] = assay: Ex vivo inhibition of 5-lipoxygenase (stimulated LTB4 synthesis in blood after dosing), rabbits; conditions: for inhibition of the stimulated ex vivo synthesis of leukotriene B₄ (LTB₄), result in words: rabbits, preliminary studies
Method: After administration of the test compound, the concentration of LTB₄ in the plasma was measured periodically and expressed as a percentage of the mean control value. The procedure used is described in Br. J. Pharmacol. 94, 528 (1988) and may be summarised as follows. Within 2 minutes of collection, duplicate samples (0.5ml) of blood were stimulated with the calcium ionophore A23187 (final concentration 15µg/ml) for 30 minutes at 37 °C. When incubation was complete, the samples were centrifuged (12,000G for 2 minutes) and the cell-free plasma removed. The plasma concentration of LTB₄ was then determined by specific radioimmunoassay. The compounds of Synthetic Examples 1 to 3 all inhibited the stimulated ex vivo synthesis of LTB₄ for several hours after their administration. The compound of Synthetic Example 1, for example, when administered orally to rabbits at a dose of 2mg/kg inhibited LTB₄ synthesis by more than 50% for a period of greater than 16 hours. The same compound when administered orally to rats at a dose of 10mg/kg inhibited LTB₄ synthesis by more than 50% for longer than 10 hours.

5-lipoxygenase [4] = target: T1, 5-lipoxygenase (Homo sapiens, UniProt P09917); assay: In vitro inhibition of 5-lipoxygenase, ionophore-stimulated whole human blood; type: cell-based; conditions: read-out: IC₅₀ Whole blood
T1 construct: The experiment was repeated using ionophore-stimulated whole human blood; endogenous in cells; host or cells: whole human blood (blood leukocytes)
T1 sequence (P09917 1-674): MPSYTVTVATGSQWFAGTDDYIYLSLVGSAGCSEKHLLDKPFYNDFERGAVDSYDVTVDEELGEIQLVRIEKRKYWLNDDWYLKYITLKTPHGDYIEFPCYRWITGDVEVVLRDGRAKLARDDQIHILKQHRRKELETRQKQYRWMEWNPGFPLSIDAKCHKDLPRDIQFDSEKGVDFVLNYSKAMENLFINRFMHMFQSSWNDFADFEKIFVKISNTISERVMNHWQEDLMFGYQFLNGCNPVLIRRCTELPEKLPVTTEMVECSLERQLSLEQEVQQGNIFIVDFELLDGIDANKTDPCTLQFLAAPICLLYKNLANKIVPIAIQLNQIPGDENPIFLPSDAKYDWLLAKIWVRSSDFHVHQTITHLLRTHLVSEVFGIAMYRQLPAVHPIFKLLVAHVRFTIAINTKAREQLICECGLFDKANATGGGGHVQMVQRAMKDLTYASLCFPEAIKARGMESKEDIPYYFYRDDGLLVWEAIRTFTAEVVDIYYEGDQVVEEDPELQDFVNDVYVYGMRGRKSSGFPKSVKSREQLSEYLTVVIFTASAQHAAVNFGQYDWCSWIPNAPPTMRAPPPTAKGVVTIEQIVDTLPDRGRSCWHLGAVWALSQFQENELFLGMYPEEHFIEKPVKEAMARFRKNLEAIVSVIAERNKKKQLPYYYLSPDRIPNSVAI
Method: Blood from normal aspirin-free volunteers was centrifuged to separate leukocytes from red cells and platelets. A solution of the test compound in DMSO (10µl, final concentration in the range 0.01 - 100µM) was added to cell homogenate (470µl) and the mixture incubated at 37 °C for 5 minutes. Solutions of arachidonic acid in methanol (250µM, 10µl, final concentration 5µM) and calcium chloride in water (100mM, 10µl, final concentration 2mM) were then added simultaneously and the mixture incubated at 37 °C for a further 5 minutes. The reaction was stopped by boiling. Radioimmunoassay was conducted for leukotriene B₄.
The experiment was repeated using ionophore-stimulated whole human blood.

5-lipoxygenase [5] = target: T2, 5-lipoxygenase (Rattus norvegicus, UniProt P12527); assay: Ex vivo inhibition of 5-lipoxygenase (stimulated LTB4 synthesis in blood after dosing), rats; conditions: po, administered orally to rats, ex vivo A23187-stimulated blood, read-out: inhibited LTB₄ synthesis
T2 construct: endogenous in cells; host or cells: whole blood of dosed rats (blood leukocytes)
T2 sequence (P12527 1-673): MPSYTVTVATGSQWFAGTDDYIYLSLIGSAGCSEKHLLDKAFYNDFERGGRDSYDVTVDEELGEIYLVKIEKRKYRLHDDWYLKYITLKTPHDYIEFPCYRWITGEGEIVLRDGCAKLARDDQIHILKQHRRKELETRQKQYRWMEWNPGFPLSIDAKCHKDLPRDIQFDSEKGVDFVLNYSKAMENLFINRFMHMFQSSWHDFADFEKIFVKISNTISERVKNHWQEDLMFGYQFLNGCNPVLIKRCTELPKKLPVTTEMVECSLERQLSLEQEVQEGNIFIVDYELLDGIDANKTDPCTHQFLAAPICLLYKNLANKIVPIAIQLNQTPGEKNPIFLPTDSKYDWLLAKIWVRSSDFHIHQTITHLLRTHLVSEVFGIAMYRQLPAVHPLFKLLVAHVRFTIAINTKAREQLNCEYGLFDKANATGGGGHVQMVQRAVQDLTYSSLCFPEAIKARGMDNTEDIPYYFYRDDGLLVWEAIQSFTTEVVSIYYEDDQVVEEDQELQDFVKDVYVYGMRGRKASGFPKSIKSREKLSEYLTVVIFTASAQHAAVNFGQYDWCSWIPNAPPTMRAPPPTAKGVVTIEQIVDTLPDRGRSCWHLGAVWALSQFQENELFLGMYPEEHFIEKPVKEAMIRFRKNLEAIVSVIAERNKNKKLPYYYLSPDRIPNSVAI
Method: After administration of the test compound, the concentration of LTB₄ in the plasma was measured periodically and expressed as a percentage of the mean control value. The procedure used is described in Br. J. Pharmacol. 94, 528 (1988) and may be summarised as follows.
Within 2 minutes of collection, duplicate samples (0.5ml) of blood were stimulated with the calcium ionophore A23187 (final concentration 15µg/ml) for 30 minutes at 37 °C. When incubation was complete, the samples were centrifuged (12,000G for 2 minutes) and the cell-free plasma removed. The plasma concentration of LTB₄ was then determined by specific radioimmunoassay.
The compounds of Synthetic Examples 1 to 3 all inhibited the stimulated ex vivo synthesis of LTB₄ for several hours after their administration. The compound of Synthetic Example 1, for example, when administered orally to rabbits at a dose of 2mg/kg inhibited LTB₄ synthesis by more than 50% for a period of greater than 16 hours. The same compound when administered orally to rats at a dose of 10mg/kg inhibited LTB₄ synthesis by more than 50% for longer than 10 hours.

mice = type: in vivo
Method: The compound of Synthetic Example 1 was administered to mice per orally at doses of up to 300mg/kg and intraperitoneally at doses of up to 100mg/kg.

[6] = duration of arthritis 14 (days)

IC50 (5-lipoxygenase [4]) [nM] | SMILES | proteoglycan loss from the cartilage, result in words [1] | mean leukocyte infiltrate in the synovial fluid, result in words [1] | PROTEOGLYCAN LOSS [1] [%] | JOINT SWELLING ([1]; duration of arthritis 1 (day)) [MM] | JOINT SWELLING ([1]; duration of arthritis 2 (days)) [MM] | JOINT SWELLING ([1]; duration of arthritis 3 (days)) [MM] | JOINT SWELLING ([1]; duration of arthritis 8 (days)) [MM] | JOINT SWELLING [1, 6] [MM] | reduced swelling compared to the vehicle-treated controls [1] | Lymphocytes [1] | Total cells [1] | LEUKOCYTES (CELL NUMBER x 10⁶) [1] [x 10⁶] | apparent rate constant (kAH) for scavenging peroxyl radicals [2] | period for which LTB₄ synthesis was inhibited by more than 50% (5-lipoxygenase [3]; administered orally to rabbits, 2mg/kg) | inhibited LTB₄ synthesis (5-lipoxygenase [3]; administered orally to rabbits, 2mg/kg, ex vivo A23187-stimulated blood) | inhibition of the stimulated ex vivo synthesis of leukotriene B₄ (LTB₄), result in words (5-lipoxygenase [3]) | inhibition at 10 mg/kg (5-lipoxygenase [5]) [%] | deaths or serious deleterious effects (mice; intraperitoneally, doses of up to 100mg/kg) | deaths or serious deleterious effects (mice; per orally, doses of up to 300mg/kg)
– | COc1ccc2c(c1)c(CC(=O)O)c(C)n2C(=O)c1ccc(Cl)cc1 [Indomethacin, indomethacin, reference compound] | reduced proteoglycan loss | slightly reduced | 38 | 4.3 | 4.5 | 3.5 | 2.6 | 2.0 | up to 53% | 51 | 365 | 7.3 | – | – | – | – | – | – | –
80 | C[C@H](/C=C/c1cccc(Oc2ccc(F)cc2)c1)N(O)C(N)=O [Synthetic Example 2, (E)-N-{3-[3-(4-fluorophenoxy)phenyl]-1(R)-methylprop-2-en-1-yl}-N-hydroxyurea] | – | – | – | – | – | – | – | – | – | – | – | – | – | – | – | effectively inhibited | – | – | –
80 | C[C@@H](/C=C/c1cccc(Oc2ccc(F)cc2)c1)N(O)C(N)=O [Synthetic Example 3, (E)-N-{3-[3-(4-fluorophenoxy)phenyl]-1(S)-methylprop-2-en-1-yl}-N-hydroxyurea] | – | – | – | – | – | – | – | – | – | – | – | – | – | – | – | effectively inhibited | – | – | –

SMILES | IC50 (5-lipoxygenase [4]) [nM] | proteoglycan loss from the cartilage, result in words [1] | mean leukocyte infiltrate in the synovial fluid, result in words [1] | PROTEOGLYCAN LOSS [1] [%] | JOINT SWELLING ([1]; duration of arthritis 1 (day)) [MM] | JOINT SWELLING ([1]; duration of arthritis 2 (days)) [MM] | JOINT SWELLING ([1]; duration of arthritis 3 (days)) [MM] | JOINT SWELLING ([1]; duration of arthritis 8 (days)) [MM] | JOINT SWELLING [1, 6] [MM] | reduced swelling compared to the vehicle-treated controls [1] | Lymphocytes [1] | Total cells [1] | LEUKOCYTES (CELL NUMBER x 10⁶) [1] [x 10⁶] | apparent rate constant (kAH) for scavenging peroxyl radicals [2] | period for which LTB₄ synthesis was inhibited by more than 50% (5-lipoxygenase [3]; administered orally to rabbits, 2mg/kg) | inhibited LTB₄ synthesis (5-lipoxygenase [3]; administered orally to rabbits, 2mg/kg, ex vivo A23187-stimulated blood) | inhibition of the stimulated ex vivo synthesis of leukotriene B₄ (LTB₄), result in words (5-lipoxygenase [3]) | inhibition at 10 mg/kg (5-lipoxygenase [5]) [%] | deaths or serious deleterious effects (mice; intraperitoneally, doses of up to 100mg/kg) | deaths or serious deleterious effects (mice; per orally, doses of up to 300mg/kg)
CC(/C=C/c1cccc(Oc2ccc(F)cc2)c1)N(O)C(N)=O (racemic) [Synthetic Example 1, (E)-N-{3-[3-(4-fluorophenoxy)phenyl]-1(R,S)-methylprop-2-en-1-yl}-N-hydroxyurea] | 150 | reduced proteoglycan loss | slightly reduced | 34 | 4.6 | 5.2 | 4.6 | 3.5 | 3.2 | up to 26% | 59 | 367 | 6.1 | 0.408 | greater than 16 hours | more than 50% | effectively inhibited | > 50 | No deaths or serious deleterious effects | No deaths or serious deleterious effects
